System: GST1 gene
Test: GST1 gene expression in the mesenteron after artificial diet containing gossypol
Format: in vivo, cotton bollworm
Conditions: 5-day old larvae, 1 day, artificial diet with 1 mg/g gossypol (FIG. 7A)
Protocol: FIG. 7A show the change in GST 1 gene expression in the mesenteron of 5-day old cotton bollworm with the same growth vigor 1 day after eating artificial diet containing 1 mg/g gossypol. Lane 1 and 2 are cotton bollworm eating artificial diet with or without 1 mg/g gossypol respectively.

`Cc1cc2c(C(C)C)c(O)c(O)c(C=O)c2c(O)c1-c1c(C)cc2c(C(C)C)c(O)c(O)c(C=O)c2c1O` [gossypol] was tested. Which “GST1 gene expression in the mesenteron” value did it give?
Its value is “no significant effect”.

Source: US8895805B2, “Method for modifying insect resistance of plants by utilizing RNAi technique” (Shanghai Institutes for Biological Sciences, Chinese …, priority 2006, dated 2014)
